Patent EP0947515A1, “NOVEL NAPHTHYRIDINE DERIVATIVES” (SUMITOMO PHARMACEUTICALS COMPANY, LIMITED, priority 1996, dated 1998)

Key:
[1] = system: ACAT; assay: Assay of ACAT inhibitory activity in a specimen prepared from rabbit liver; format: biochemical, New Zealand white rabbit; settings: enzyme specimen from liver of cholesterol-fed rabbit, [1-14C]oleoyl-CoA and endogenous cholesterol, 0.1 µM
Procedure: 1. Assay of ACAT inhibitory activity in a specimen prepared from rabbit liver
An enzyme specimen ACAT was prepared according to the method disclosed in the literature: J. Lipid. Research, 30, 681-690, 1989, from the liver of New Zealand white rabbit, which had been fed with 1 % cholesterol feed for one month. The ACAT activity was determined according to the method disclosed in the literature: J. Lipid Research, 24, 1127-1134, 1983, i.e., using radioactive [1-14C]oleoyl-CoA and endogenous cholesterol contained in the liver microsome, and calculated from the radioactivity of the labeled cholesterol oleate.

[2] = molecular target: T1, ACAT (Rattus norvegicus, UniProt O70536); assay: Assay of ACAT inhibitory activity in the macrophage derived from rat peritoneal; format: cell-based; settings: 10^-7 M, radioactive oleic acid and exogenous cholesterol in liposome, read-out: ACAT inhibitory rate (%) 10^-7 M
T1 construct: The rat peritoneal-derived macrophage was prepared; endogenous in cells; host or cells: rat peritoneal macrophages (primary)
T1 sequence (O70536 1-545): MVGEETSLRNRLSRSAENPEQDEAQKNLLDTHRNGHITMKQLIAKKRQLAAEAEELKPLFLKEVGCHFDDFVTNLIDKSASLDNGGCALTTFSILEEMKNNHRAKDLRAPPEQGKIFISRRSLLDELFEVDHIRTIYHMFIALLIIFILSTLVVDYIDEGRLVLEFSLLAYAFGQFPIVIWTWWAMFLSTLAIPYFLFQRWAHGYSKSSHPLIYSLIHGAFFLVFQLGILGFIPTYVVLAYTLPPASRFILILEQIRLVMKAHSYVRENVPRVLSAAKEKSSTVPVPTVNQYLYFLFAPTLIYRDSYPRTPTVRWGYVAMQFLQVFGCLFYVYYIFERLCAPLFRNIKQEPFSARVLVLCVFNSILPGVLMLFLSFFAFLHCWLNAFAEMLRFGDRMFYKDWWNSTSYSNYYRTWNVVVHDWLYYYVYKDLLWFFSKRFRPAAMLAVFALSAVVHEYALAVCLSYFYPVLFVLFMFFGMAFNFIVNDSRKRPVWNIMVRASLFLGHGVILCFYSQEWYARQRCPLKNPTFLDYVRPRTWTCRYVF
Procedure: 2. Assay of ACAT inhibitory activity in the macrophage derived from rat peritoneal
The rat peritoneal-derived macrophage was prepared according to the method disclosed in the literature: Biochimica et Biophysica Acta, 1126, 73-80, 1992. The ACAT activity was determined by a modified method of the method disclosed in the above literature: Biochimica et Biophysica Acta, 1126, 73-80, 1992, i.e., using radioactive [9, 10-H]oleic acid and exogenous cholesterol contained in the liposome which was reconstituted according to the method disclosed in the literature: Biochimica et Biophysica Acta, 1213, 127-134, 1994, and calculated from the radioactivity of the labeled cholesterolyl oleate.

inhibition at 0.1 µM [2]: 96%
SMILES: CCCCn1c(=O)c(NC(=O)Nc2c(C(C)C)cccc2C(C)C)c(-c2cccc(C#CCN3CCCC3)c2)c2cccnc21 [Example 90, N-[1-butyl-4-[3-{3-(1-pyrrolidinyl)-1-propynyl)phenyl}-1,2-dihydro-2-oxo-1,8-naphthyridin-3-yl)-N'-(2,6-diisopropylphenyl)urea]
ACAT inhibitory rate (%) 10^-7 M [1]: 39%
